Measured values: patent US8562949B2, “Radiolabeled dihydrotetrabenazine derivatives and their use as imaging agents” (The Trustees of the University of Pennsylvania, priority 2006, dated 2013)
Read-outs that look alike come from different tables or passages of the source.

Key:
VMAT2 = VMAT2 (Rattus norvegicus, UniProt Q01827); assay: Blocking of pancreatic signal by DTBZ in rats; format: in vivo; parameters: from tissue; host or cells: living rats; organs dissected after iv injection; conditions: 30 min, DTBZ 3.8 mg/kg pretreatment
VMAT2, sequence (Q01827 whole entry): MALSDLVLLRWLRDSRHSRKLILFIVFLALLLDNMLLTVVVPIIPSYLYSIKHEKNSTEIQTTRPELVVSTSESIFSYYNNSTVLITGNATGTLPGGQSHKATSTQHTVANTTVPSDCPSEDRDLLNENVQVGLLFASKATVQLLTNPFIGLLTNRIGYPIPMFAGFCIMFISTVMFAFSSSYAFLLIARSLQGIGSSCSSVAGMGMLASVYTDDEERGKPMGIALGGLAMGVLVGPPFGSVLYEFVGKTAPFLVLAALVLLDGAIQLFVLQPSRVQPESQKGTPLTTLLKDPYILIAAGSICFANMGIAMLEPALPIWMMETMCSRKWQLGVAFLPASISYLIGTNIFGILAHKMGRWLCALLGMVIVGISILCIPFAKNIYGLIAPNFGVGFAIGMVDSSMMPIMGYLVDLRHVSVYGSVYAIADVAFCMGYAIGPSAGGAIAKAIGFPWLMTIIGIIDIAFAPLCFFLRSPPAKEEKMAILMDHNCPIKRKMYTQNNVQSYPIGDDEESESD
Description: (§1) Rats were pretreated with non-radiolabeled DBTZ (3.8 mg/kg) five minutes prior to injection with (+)-6b.

islet cell homogenates = assay: In vitro binding to islet cell homogenates (FIG. 8)
[1] = Blocking of pancreatic signal by DTBZ in rats; format: in vivo; conditions: rat
Description: as §1

VMAT-2 = test system: T1, VMAT-2; assay: Blocking of pancreatic signal by DTBZ in rats; format: in vivo; conditions: rat
T1 construct: from tissue; host or cells: living rats; organs dissected after iv injection
Description: as §1

[2] = Biodistribution in normal rats; format: in vivo; conditions: IV
Description: While under isoflurane anesthesia, 0.15 mL of a 0.1% bovine serum albumin solution containing [^18F]tracers (10-20 μCi) were injected directly into the tail vein of ICR mice (22-25 g, male) The mice (n=3 for each time point) were sacrificed by cervical dislocation at indicated time points post injection. The organs of interest were removed and weighed, and the radioactivity was counted with an automatic gamma counter. The percentage dose per organ was calculated by a comparison of the tissue counts to suitably diluted aliquots of the injected material. Total activities of blood were calculated under the assumption that they were 7% of the total body weight. The % dose/g of samples was calculated by comparing the sample counts with the count of the diluted initial dose.
The ability of (+)-6b to target the pancreas was shown in normal rats. Using the methods described above under Example 6, the biodistribution of (+)-6b after IV injection in twelve normal rats was measured. For the organs studied, the pancreas had the highest % dose/gram within 30 minutes after injection. Also shown are data indicating distribution in the striatum, which is another area rich in VMAT-2 receptors.

VMAT2 sites = VMAT2 sites (Mus musculus, UniProt Q8BRU6); conditions: lesioned mice
VMAT2 sites, sequence (Q8BRU6 whole entry): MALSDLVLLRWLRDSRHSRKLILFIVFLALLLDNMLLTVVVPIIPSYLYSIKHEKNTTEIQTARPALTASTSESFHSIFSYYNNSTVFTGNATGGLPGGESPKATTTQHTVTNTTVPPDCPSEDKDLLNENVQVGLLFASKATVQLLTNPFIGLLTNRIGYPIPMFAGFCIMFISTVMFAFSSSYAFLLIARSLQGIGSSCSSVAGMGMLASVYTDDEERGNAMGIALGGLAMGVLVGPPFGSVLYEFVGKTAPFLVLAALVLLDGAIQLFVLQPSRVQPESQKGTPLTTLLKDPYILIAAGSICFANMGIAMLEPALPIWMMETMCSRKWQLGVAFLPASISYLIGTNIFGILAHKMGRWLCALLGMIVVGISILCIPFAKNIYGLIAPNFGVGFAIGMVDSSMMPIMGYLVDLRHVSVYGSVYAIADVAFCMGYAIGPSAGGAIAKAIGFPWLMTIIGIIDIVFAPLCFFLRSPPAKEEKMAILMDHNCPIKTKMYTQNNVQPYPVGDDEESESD
Description: Thirty minutes after injection, the mice were sacrificed and the brains removed. Different regions corresponding to striatum (ST), hippocampus (HP), cerebellum (CB), and cortex (CX) were dissected. In particular, the lesioned region was separated from non-lesioned area of the striatal tissues. Samples were counted in a gamma counter with two different window settings for F-18 and I-125, respectively, to obtain the regional distribution of each tracer.
To measure the degree of lesion, a dual-isotope experiment comparing the striatal uptakes in lesioned vs. unlesioned sites using [^18F]FP-DTBZ was performed. A marker [^125I]IPT (selective for dopamine transporters) was injected simultaneously.

## COc1cc2c(cc1OCCC[18F])CCN1C[C@@H](CC(C)C)[C@H](O)C[C@H]21 [[^18F]-(+)-6b]
VMAT2
  Blocking, Pancreas: 30%
  Blocking, Striatum: > 90%
Islet cell homogenates
  binding to islet cell homogenates: specific and saturable
[1]; blood, 30 min Blocking, DTBZ 3.8 mg/kg pretreatment, read-out: Blood
  tissue uptake at 30 min: 0.32 ± 0.04 %ID/g
[1]; blood, 30 min Control, read-out: Blood
  tissue uptake at 30 min: 0.2 ± 0.01 %ID/g
[1]; cortex, 30 min Blocking, DTBZ 3.8 mg/kg pretreatment, read-out: Regional Brain Distribution Cortex
  tissue uptake at 30 min: 0.26 ± 0.05 %ID/g
[1]; cortex, 30 min Control, read-out: Regional Brain Distribution Cortex
  tissue uptake at 30 min: 0.36 %ID/g
[1]; hippocampus, 30 min Blocking, DTBZ 3.8 mg/kg pretreatment, read-out: Regional Brain Distribution Hippocampus
  tissue uptake at 30 min: 0.25 ± 0.03 %ID/g
[1]; hippocampus, 30 min Control, read-out: Regional Brain Distribution Hippocampus
  tissue uptake at 30 min: 0.54 ± 0.03 %ID/g
[1]; hypothalamus, 30 min Blocking, DTBZ 3.8 mg/kg pretreatment, read-out: Regional Brain Distribution Hypothalamus
  tissue uptake at 30 min: 0.25 ± 0.04 %ID/g
[1]; hypothalamus, 30 min Control, read-out: Regional Brain Distribution Hypothalamus
  tissue uptake at 30 min: 1.2 ± 0.07 %ID/g
[1]; striatum, 30 min Blocking, DTBZ 3.8 mg/kg pretreatment, read-out: Regional Brain Distribution Striatum
  tissue uptake at 30 min: 0.27 ± 0.02 %ID/g
[1]; striatum, 30 min Control, read-out: Regional Brain Distribution Striatum
  tissue uptake at 30 min: 1.94 ± 0.03 %ID/g
VMAT-2; cerebellum, 30 min Blocking, DTBZ 3.8 mg/kg pretreatment, read-out: Regional Brain Distribution Cerebellum
  tissue uptake at 30 min: 0.25 ± 0.03 %ID/g
VMAT-2; cerebellum, 30 min Control, read-out: Regional Brain Distribution Cerebellum
  tissue uptake at 30 min: 0.36 %ID/g
VMAT-2; pancreas, 30 min Blocking, DTBZ 3.8 mg/kg pretreatment, read-out: Pancreas
  tissue uptake at 30 min: 3.1 ± 0.3 %ID/g
VMAT-2; pancreas, 30 min Control, read-out: Pancreas
  tissue uptake at 30 min: 4.39 ± 0.64 %ID/g
[2]; 2 min
  Biodistribution Blood: 0.26 ± 0.03 % dose/g
  Biodistribution Brain: 0.71 ± 0.05 % dose/g
  Biodistribution Cerebellum: 0.63 ± 0.03 % dose/g
  Biodistribution Cortex: 0.65 ± 0.02 % dose/g
  Biodistribution Heart: 0.71 ± 0.07 % dose/g
  Biodistribution Hippocampus: 0.68 ± 0.07 % dose/g
  Biodistribution Kidney: 2.10 ± 0.17 % dose/g
  Biodistribution Liver: 3.53 ± 0.56 % dose/g
  Biodistribution Lung: 0.94 ± 0.04 % dose/g
  Biodistribution Muscle: 0.14 ± 0.03 % dose/g
  Biodistribution Pancreas: 2.51 ± 0.22 % dose/g
  Biodistribution Skin: 0.23 ± 0.05 % dose/g
  Biodistribution Spleen: 1.46 ± 0.15 % dose/g
  Biodistribution Striatum: 1.52 ± 0.20 % dose/g
[2]; 30 min
  Biodistribution Blood: 0.23 ± 0.06 % dose/g
  Biodistribution Brain: 0.62 ± 0.08 % dose/g
  Biodistribution Cerebellum: 0.40 ± 0.04 % dose/g
  Biodistribution Cortex: 0.44 ± 0.06 % dose/g
  Biodistribution Heart: 0.41 ± 0.03 % dose/g
  Biodistribution Hippocampus: 0.61 ± 0.12 % dose/g
  Biodistribution Kidney: 1.06 ± 0.06 % dose/g
  Biodistribution Liver: 2.82 ± 0.24 % dose/g
  Biodistribution Lung: 0.69 ± 0.03 % dose/g
  Biodistribution Muscle: 0.17 ± 0.02 % dose/g
  Biodistribution Pancreas: 5.50 ± 0.97 % dose/g
  Biodistribution Skin: 0.28 ± 0.01 % dose/g
  Biodistribution Spleen: 1.03 ± 0.18 % dose/g
  Biodistribution Striatum: 2.25 ± 0.48 % dose/g
[2]; 60 min
  Biodistribution Blood: 0.18 ± 0.02 % dose/g
  Biodistribution Brain: 0.42 ± 0.04 % dose/g
  Biodistribution Cerebellum: 0.28 ± 0.04 % dose/g
  Biodistribution Cortex: 0.27 ± 0.07 % dose/g
  Biodistribution Heart: 0.30 ± 0.10 % dose/g
  Biodistribution Hippocampus: 0.36 ± 0.08 % dose/g
  Biodistribution Kidney: 0.84 ± 0.09 % dose/g
  Biodistribution Liver: 2.47 ± 0.30 % dose/g
  Biodistribution Lung: 0.54 ± 0.14 % dose/g
  Biodistribution Muscle: 0.13 ± 0.01 % dose/g
  Biodistribution Pancreas: 4.98 ± 0.24 % dose/g
  Biodistribution Skin: 0.23 ± 0.04 % dose/g
  Biodistribution Spleen: 0.83 ± 0.18 % dose/g
  Biodistribution Striatum: 1.85 ± 0.26 % dose/g
[2]; 120 min
  Biodistribution Blood: 0.12 ± 0.03 % dose/g
  Biodistribution Brain: 0.35 ± 0.02 % dose/g
  Biodistribution Cerebellum: 0.20 ± 0.01 % dose/g
  Biodistribution Cortex: 0.20 ± 0.06 % dose/g
  Biodistribution Heart: 0.22 ± 0.01 % dose/g
  Biodistribution Hippocampus: 0.23 ± 0.03 % dose/g
  Biodistribution Kidney: 0.55 ± 0.06 % dose/g
  Biodistribution Liver: 1.47 ± 0.13 % dose/g
  Biodistribution Lung: 0.35 ± 0.03 % dose/g
  Biodistribution Muscle: 0.10 ± 0.01 % dose/g
  Biodistribution Pancreas: 2.76 ± 0.61 % dose/g
  Biodistribution Skin: 0.16 ± 0.02 % dose/g
  Biodistribution Spleen: 0.48 ± 0.04 % dose/g
  Biodistribution Striatum: 1.42 ± 0.54 % dose/g
VMAT2 sites
  correlation (r) of lesioned-site uptake with [125I]IPT data: 0.95
